Data reported in paper PMC11249646, “Small-Molecule Disruptors of the Interaction between Calcium- and Integrin-Binding Protein 1 and Integrin αIIbβ3 as Novel Antiplatelet Agents” (ACS Pharmacology & Translational Science, 2024).
pIC50: −log10 of the molar value. Where two headings read alike, the source gives them in different places.

Assays:
Assay type in all cases: binding
[1] = biological target: T1, CIB1 and αIIb interaction (GST-CIB1 : F-αIIb peptide) (Homo sapiens, UniProt Q99828); experiment: FP assay, 384-well format (screen); design: 384-well SCREEN Efficacy (%): concentration or dose not given beside the values; settings: for pIC50: read-out: 384-well SCREEN IC50
T1 construct: made in house; host or cells: BL-21 plus RIL cells (E. coli)
T1 sequence (Q99828 1-191): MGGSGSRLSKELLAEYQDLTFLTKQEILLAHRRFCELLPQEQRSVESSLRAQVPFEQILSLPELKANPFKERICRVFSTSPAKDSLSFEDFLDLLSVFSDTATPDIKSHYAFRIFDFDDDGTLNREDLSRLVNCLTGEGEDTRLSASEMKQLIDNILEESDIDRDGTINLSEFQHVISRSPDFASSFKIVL

[2] = biological target: T2, GST-CIB1 : F-scrambled peptide (Homo sapiens, UniProt Q99828); experiment: FP scrambled-peptide counter screen, 384-well format; settings: for pIC50: read-out: 384-well COUNTERSCREEN IC50; for 384-well COUNTERSCREEN Confirm?: *: Curve in opposite direction
T2 construct: made in house; host or cells: BL-21 plus RIL cells (E. coli)
T2 sequence (Q99828 1-191): T1 sequence (Q99828 1-191)

[3] = biological target: T3, CIB1 and αIIb interaction (CIB1-GST : F-αIIb peptide) (Homo sapiens, UniProt Q99828); experiment: FP assay, 1536-well qHTS format (primary and confirmatory screen)
T3 construct: made in house; host or cells: BL-21 plus RIL cells (E. coli)
T3 sequence (Q99828 1-191): T1 sequence (Q99828 1-191)

[4] = biological target: T2, GST-CIB1 : F-scrambled peptide; experiment: FP scrambled-peptide counter screen, 1536-well format; settings: for pIC50: read-out: COUNTERSCREEN IC50
[5] = confirmatory screen, YES/NO call
[6] = confirmatory screen, qHTS curve class, negative sign = inhibitory curve
[7] = confirmatory screen, negative = inhibition
[8] = confirmatory screen, read-out: CONFIRMATORY SCREEN IC50
[9] = qHTS FP screen hits, Table S2, negative = inhibition
[10] = qHTS FP screen hits, Table S2, one class per curve where COUNT > 1, negative sign = inhibitory curve
[11] = qHTS FP screen hits, Table S2, read-out: IC50
[12] = scrambled-peptide counterscreen
[13] = scrambled-peptide counterscreen, YES/NO call
[14] = scrambled-peptide counterscreen, qHTS curve class
[15] = qHTS primary screen hits, Table S2, negative = inhibition
[16] = qHTS primary screen hits, Table S2, negative sign = inhibitory curve, several classes where COUNT > 1
[17] = qHTS primary screen hits, Table S2, read-out: IC50

Row | 384-well SCREEN Efficacy (%) ([1]; F-αIIb peptide) | pIC50 ([1]; F-αIIb peptide) | 384-well COUNTERSCREEN Efficacy (%) ([2]; F-scrambled peptide) | pIC50 ([2]; F-scrambled peptide) | CONFIRMATORY SCREEN Confirm? [3, 5] | CONFIRMATORY SCREEN Curve Class [3, 6] | CONFIRMATORY SCREEN Efficacy (%) [3, 7] [%] | pIC50 [3, 8] | COUNTERSCREEN Efficacy (%) [4, 12] [%] | COUNTERSCREEN Confirm? [4, 13] | pIC50 [4, 12] | Structure (SMILES) | Efficacy (%) [3, 9] [%] | Curve Class [3, 10] | pIC50 [3, 11] | COUNTERSCREEN Curve Class [4, 14] | 384-well SCREEN Confirm? ([1]; F-αIIb peptide, YES/NO) | 384-well COUNTERSCREEN Confirm? ([2]; F-scrambled peptide) | Efficacy (%) [3, 15] [%] | Curve Class [3, 16] | pIC50 [3, 17] | other results
1 |  |  |  |  |  |  |  |  |  |  |  | CC[P](CC)(CC)=[Au][S][C@@H]1O[C@H](COC(C)=O)[C@@H](OC(C)=O)[C@H](OC(C)=O)[C@H]1OC(C)=O [NCGC00160391-02] |  |  |  |  |  |  |  |  |  | 384-well SCREEN Confirm? [1]: YES; 384-well SCREEN Efficacy (%) [1]: 69%; pIC50 [1]: 5.20; 384-well COUNTERSCREEN Efficacy (%) [2]: 52%; pIC50 [2]: 5.05; CONFIRMATORY SCREEN Confirm? [3]: YES; CONFIRMATORY SCREEN Curve Class [3]: -1.2; CONFIRMATORY SCREEN Efficacy (%) [3]: -36%; pIC50 ([3]; read-out: CONFIRMATORY SCREEN IC50): 4.50; COUNTERSCREEN Confirm? [4]: YES; COUNTERSCREEN Curve Class [4]: 4; COUNTERSCREEN Efficacy (%) [4]: -14%
2 | 31 | < 3.92 | 173 | 5.00 | YES | -1.2 | -75 | 4.95 | 20 | YES | 4.95 | CCc1oc2ccccc2c1C(=O)c1cc(I)c(O)c(I)c1 [NCGC00160408-03] | -52 | -2.2 | 4.40 | 1.4 |  |  |  |  |  | 
3 | 69 | 4.90 | 39 | < 3.92 | YES | -3 | -60 | 4.40 | 0 | YES |  | CCCCCCCCOc1ccccc1C(=O)Nc1ccc(C(=O)OCC[N+](C)(CC)CC)cc1.[Br-] [NCGC00163507-02] |  |  |  | 4 | YES | YES |  |  |  | 
4 | 38 | 5.02 | 60 | 6.00 | YES | -1.2 | -58 | 4.85 | 37 | YES | 4.30 | COc1cc(C(=O)NS(=O)(=O)c2ccccc2C)ccc1Cc1cn(C)c2ccc(NC(=O)OC3CCCC3)cc12 [NCGC00164547-06] |  |  |  |  | YES | YES* | -38 | -2.4 | 4.45 | 

Row | Structure (SMILES) | 384-well SCREEN Efficacy (%) ([1]; F-αIIb peptide) | pIC50 ([1]; F-αIIb peptide) | 384-well COUNTERSCREEN Efficacy (%) ([2]; F-scrambled peptide) | pIC50 ([2]; F-scrambled peptide) | CONFIRMATORY SCREEN Confirm? [3, 5] | CONFIRMATORY SCREEN Curve Class [3, 6] | CONFIRMATORY SCREEN Efficacy (%) [3, 7] [%] | pIC50 [3, 8] | COUNTERSCREEN Efficacy (%) [4, 12] [%] | COUNTERSCREEN Confirm? [4, 13] | pIC50 [4, 12] | Efficacy (%) [3, 9] [%] | Curve Class [3, 10] | pIC50 [3, 11] | COUNTERSCREEN Curve Class [4, 14] | 384-well SCREEN Confirm? ([1]; F-αIIb peptide, YES/NO) | 384-well COUNTERSCREEN Confirm? ([2]; F-scrambled peptide) | Efficacy (%) [3, 15] [%] | Curve Class [3, 16] | pIC50 [3, 17] | other results
5 | COc1nn(CSP(=S)(OC)OC)c(=O)s1 [NCGC00163724-03] | 80 | 4.80 | 60 | < 3.92 | YES | -1.4 | -47 | 4.70 | 0 | YES |  |  |  |  | 4 | YES | YES | -47 | -1.2 | 4.23 | 
6 | Br.CCCCCCCCCCCCCCCC[N+](C)(C)C.[Br-] [NCGC00164283-07] | 57 | 4.80 | 44 | 5.60 | YES | -2.1 | -114 | 4.15 | 0 | YES |  | -75 | -2.2 | 4.10 | 4 | YES | YES |  |  |  | 
